Laboratory results taken from article PMC1972543, “Elevated carbohydrate phosphotransferase activity in human hepatoma and phosphorylation of cathepsin D” (British Journal of Cancer, 1991).

How the values were obtained:
[1] = molecular target: T1, GlcNAc-phosphotransferase (UDP-GlcNAc: lysosomal enzyme GlcNAc alpha 1-phosphotransferase) (Homo sapiens, UniProt Q3T906); experiment: radiometric transferase assay, QAE-Sephadex; format: biochemical; details: normal liver homogenate, range of three preparations, Mn2+, Mg2+, ATP, pH 7.4, 37 °C
T1 construct: gene GNPTAB; native enzyme in 600 g supernatant of human normal liver homogenate (autopsy tissue), not purified; alpha/beta precursor is cleaved into alpha and beta chains (alpha2beta2gamma2); with N-acetylglucosamine-1-phosphotransferase subunit gamma
T1 sequence (Q3T906 1-928): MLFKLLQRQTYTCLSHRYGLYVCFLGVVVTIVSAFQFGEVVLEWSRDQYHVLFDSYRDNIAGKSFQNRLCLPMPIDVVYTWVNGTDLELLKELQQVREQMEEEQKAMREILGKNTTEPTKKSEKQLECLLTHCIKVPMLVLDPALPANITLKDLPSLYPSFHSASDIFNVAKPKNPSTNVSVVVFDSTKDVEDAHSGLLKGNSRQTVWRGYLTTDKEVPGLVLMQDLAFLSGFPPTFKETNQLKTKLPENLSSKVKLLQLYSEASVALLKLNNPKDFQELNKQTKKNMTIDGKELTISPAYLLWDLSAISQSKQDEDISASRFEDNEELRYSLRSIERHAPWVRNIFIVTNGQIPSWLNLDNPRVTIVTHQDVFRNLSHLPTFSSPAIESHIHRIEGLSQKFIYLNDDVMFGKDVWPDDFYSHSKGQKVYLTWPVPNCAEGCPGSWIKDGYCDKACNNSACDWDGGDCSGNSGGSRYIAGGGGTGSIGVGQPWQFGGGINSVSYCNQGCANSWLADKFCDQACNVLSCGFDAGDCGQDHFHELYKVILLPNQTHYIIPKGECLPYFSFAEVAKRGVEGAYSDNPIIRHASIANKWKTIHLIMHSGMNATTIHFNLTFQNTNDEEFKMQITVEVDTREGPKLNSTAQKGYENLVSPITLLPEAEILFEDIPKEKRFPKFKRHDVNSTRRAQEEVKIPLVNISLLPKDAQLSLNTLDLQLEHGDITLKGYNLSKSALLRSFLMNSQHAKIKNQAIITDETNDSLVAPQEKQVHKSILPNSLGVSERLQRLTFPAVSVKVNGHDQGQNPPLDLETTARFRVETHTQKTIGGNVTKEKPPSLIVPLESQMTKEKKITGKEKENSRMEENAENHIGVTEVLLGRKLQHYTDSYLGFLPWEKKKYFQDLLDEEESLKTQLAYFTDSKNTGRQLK
T1 sequence (Q3T906 929-1256): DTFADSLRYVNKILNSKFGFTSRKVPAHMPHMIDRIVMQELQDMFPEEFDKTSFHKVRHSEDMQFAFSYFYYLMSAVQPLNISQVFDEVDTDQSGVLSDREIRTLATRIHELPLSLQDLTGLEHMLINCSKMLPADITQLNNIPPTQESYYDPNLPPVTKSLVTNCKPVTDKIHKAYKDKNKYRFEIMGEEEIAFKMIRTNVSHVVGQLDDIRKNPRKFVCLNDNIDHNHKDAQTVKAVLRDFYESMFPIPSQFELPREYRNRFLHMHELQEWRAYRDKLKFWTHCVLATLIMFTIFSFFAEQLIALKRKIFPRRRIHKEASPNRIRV
T1 sequence (Q9UJJ9 25-305 partner): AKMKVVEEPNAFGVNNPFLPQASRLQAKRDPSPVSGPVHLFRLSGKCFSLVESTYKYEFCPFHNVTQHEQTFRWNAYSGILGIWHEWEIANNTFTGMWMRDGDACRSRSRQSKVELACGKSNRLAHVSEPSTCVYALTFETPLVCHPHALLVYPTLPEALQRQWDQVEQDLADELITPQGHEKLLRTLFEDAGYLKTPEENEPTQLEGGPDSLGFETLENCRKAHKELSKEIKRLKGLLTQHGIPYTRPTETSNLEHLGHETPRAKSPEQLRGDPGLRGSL

[2] = molecular target: T2, phosphodiester glycosidase (phosphodiester alpha-N-acetylglucosaminidase) (Homo sapiens, UniProt Q9UK23); experiment: radiometric release of [3H]GlcNAc, QAE-Sephadex; format: biochemical; details: liver homogenate; Triton X-100, N-acetylmannosamine, EDTA, pH 7.4, 37 °C; labelled compound
T2 construct: gene NAGPA; native enzyme in 600 g supernatant of human normal liver and hepatoma homogenates, not purified
T2 sequence (Q9UK23 50-515): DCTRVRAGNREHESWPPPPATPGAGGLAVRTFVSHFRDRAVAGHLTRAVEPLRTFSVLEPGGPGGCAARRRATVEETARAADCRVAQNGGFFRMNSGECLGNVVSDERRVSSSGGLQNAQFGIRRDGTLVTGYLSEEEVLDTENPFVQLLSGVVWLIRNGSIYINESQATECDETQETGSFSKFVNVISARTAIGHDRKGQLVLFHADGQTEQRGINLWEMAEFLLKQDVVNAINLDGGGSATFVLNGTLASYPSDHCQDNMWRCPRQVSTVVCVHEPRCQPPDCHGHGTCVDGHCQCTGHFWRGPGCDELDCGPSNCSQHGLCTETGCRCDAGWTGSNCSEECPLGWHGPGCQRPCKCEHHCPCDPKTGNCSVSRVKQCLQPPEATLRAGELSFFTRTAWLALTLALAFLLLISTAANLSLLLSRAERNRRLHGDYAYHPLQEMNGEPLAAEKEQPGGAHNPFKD

CC(=O)N[C@H]1[C@@H](OP(=O)(O)OP(=O)(O)OC[C@H]2O[C@@H](n3ccc(=O)[nH]c3=O)[C@H](O)[C@@H]2O)O[C@H](CO)[C@@H](O)[C@@H]1O [UDP-GlcNAc]
Km ([1]; acceptor alpha-methylmannoside, labelled compound): 0.027 to 0.037 mM

CO[C@H]1O[C@H](COP(=O)(O)O[C@H]2O[C@H](CO)[C@@H](O)[C@H](O)[C@H]2NC(C)=O)[C@@H](O)[C@H](O)[C@@H]1O [[6-3H]GlcNAc-P-6-(alpha-methyl)mannoside]
radiometric release of [3H]GlcNAc, QAE-Sephadex [2]: amount of the labelled substrate used for the glycosidase assay was not sufficient to measure Km

CO[C@H]1O[C@H](CO)[C@@H](O)[C@H](O)[C@@H]1O [alpha-methylmannoside]
Km ([1]; co-substrate [beta-32P]UDP-GlcNAc): 50 to 100 mM
